In ChEMBL document CHEMBL1201862, “PubChem BioAssay data set” (2004):
Activity calls are given as the source filed them.

Experiments:
Cytochrome P450 3A4 = Cytochrome P450 3A4 (Homo sapiens, UniProt P08684);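 further: CYP3A4 tested as one member of a cytochrome P450 panel screen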
Cytochrome P450 2C9 = Cytochrome P450 2C9 (Homo sapiens, UniProt P11712)
[1] = intracellular Trypanosoma cruzi inhibitors in host cells – cell-based, plate reader, cherry-pick samples, set 3, dose response (AID 651818); format: functional;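 further: compounds incubated with infected cells for about four days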
H9c2 = experiment: cells; format: functional, cell-based; conditions: Rattus norvegicus, H9c2, Myocardium;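 further: confirmatory concentration-response retest of ultra-high-throughput screening hits for modulation of myocardial damage; cell death induced by hydrogen peroxide oxidative stress; compound pretreatment for 60 min then peroxide exposure for 2 h; potency is for protecting the cells against peroxide damage rather than for killing them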
[2] = target: FAD-linked sulfhydryl oxidase ALR (Homo sapiens, UniProt P55789); experiment: inhibitors of human ALR sulfhydryl oxidase, dose response, biochemical, H2O2 detection, luminescence, cherry-pick (AID 493248)
[3] = target: T1, Rac GTPase-activating protein 1 (Homo sapiens, UniProt Q9H0H5); experiment: MgcRacGAP GTPase-activating activity inhibitors, confirmation, biochemical, ADP Hunter fluorescence, primary and confirmatory (AID 624330); format: functional
T1 sequence (Q9H0H5 whole entry): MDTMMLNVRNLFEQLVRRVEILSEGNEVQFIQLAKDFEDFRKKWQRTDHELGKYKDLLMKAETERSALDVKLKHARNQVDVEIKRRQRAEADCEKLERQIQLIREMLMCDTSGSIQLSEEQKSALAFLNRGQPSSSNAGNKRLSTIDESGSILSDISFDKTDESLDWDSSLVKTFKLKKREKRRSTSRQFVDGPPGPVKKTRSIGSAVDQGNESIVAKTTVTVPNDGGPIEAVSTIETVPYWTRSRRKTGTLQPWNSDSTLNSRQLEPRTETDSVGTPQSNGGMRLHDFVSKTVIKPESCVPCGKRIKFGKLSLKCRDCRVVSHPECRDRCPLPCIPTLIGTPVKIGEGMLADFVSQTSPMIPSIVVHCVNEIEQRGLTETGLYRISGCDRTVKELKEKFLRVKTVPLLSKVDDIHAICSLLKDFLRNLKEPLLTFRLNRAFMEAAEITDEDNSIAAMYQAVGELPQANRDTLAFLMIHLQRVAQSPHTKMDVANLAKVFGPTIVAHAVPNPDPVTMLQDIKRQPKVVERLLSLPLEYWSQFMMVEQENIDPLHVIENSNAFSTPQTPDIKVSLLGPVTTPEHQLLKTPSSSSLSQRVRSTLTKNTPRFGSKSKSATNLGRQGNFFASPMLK

[4] = target: Induced myeloid leukemia cell differentiation protein Mcl-1 (Homo sapiens, UniProt Q07820); format: functional
Cytochrome P450 2C19 = Cytochrome P450 2C19 (Homo sapiens, UniProt P33261); experiment: Cytochrome panel assay with activity outcomes. Panel member name: p450-cyp2c19 Compounds with AC50 equal or less than 10 uM are considered active; format: functional; conditions: read-out: AC50
[5] = Luminescence Cell-Based Dose Response HTS to Identify Inhibitors of 5'UTR Stem-Loop Driven Prion Protein mRNA Translation in H4 Neuroglioblastoma Cells. [Related pubchem assays: 1827 (Project Summary), 1813 (Primary HTS)]; format: functional
Streptococcus = experiment: Group A Streptococcus viability loss, dose response, counter-screen for streptokinase expression inhibitor project, luminescence, BacTiterGlo (AID 1915); format: functional, organism-based;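 further: potency for reduction of bacterial viability or growth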
[6] = HepG2 cell cytotoxicity, dose response, cytotoxicity control for Shn3 inhibitor project, CellTiter-Glo, cherry-picked (AID 624134); format: functional, cell-based
[7] = inhibitors of firefly luciferase expression or activity, dose response, H4 neuroglioma cells, luminescence (AID 1990); format: functional, cell-based
[8] = inhibitors of intracellular T. cruzi replication, confirmation, NIH3T3 host cells, beta-gal luminescence (AID 2044); format: functional, cell-based;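 further: intracellular parasites grown in NIH/3T3 mouse fibroblasts as host cells; luminescent beta-galactosidase reporter signal from transgenic T. cruzi replicating inside host cells; inhibitors lower the luminescence signal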
Streptokinase A = target: T2, Streptokinase A (Streptococcus pyogenes serotype M1, UniProt P10520); experiment: S. pyogenes streptokinase expression inhibitors, potency, dose response, plasminogen activation absorbance, OD405 (AID 1914); format: functional, Streptococcus pyogenes M1 GAS;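 further: secreted streptokinase activity via plasminogen activation per viability signal from cell pellet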
T2 sequence (P10520 whole entry): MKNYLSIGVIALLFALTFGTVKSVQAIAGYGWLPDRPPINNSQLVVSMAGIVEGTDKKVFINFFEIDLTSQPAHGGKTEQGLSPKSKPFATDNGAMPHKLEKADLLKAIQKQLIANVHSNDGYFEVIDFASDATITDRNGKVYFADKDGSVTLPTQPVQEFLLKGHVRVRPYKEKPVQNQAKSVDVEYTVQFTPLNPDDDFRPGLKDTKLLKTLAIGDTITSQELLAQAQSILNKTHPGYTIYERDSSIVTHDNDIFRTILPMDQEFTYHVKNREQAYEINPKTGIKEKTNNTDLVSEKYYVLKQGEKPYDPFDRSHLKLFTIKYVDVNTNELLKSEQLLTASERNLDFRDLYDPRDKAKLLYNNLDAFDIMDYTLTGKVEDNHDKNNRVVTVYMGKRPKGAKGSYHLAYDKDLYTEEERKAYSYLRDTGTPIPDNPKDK

[9] = Shn3 3'UTR reporter inhibitors, dose response, cell-based, Clone20 osteoblasts, firefly luciferase, cherry-picked (AID 624132); format: functional;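 further: firefly luciferase luminescence from reporter carrying the Shn3 3'UTR in osteoblasts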
[10] = system: Streptococcus sp. 'group A'; experiment: growth inhibition of control SK(-) GAS strain, dose response, counter-screen for streptokinase expression inhibitor project, luminescence, kanamycin, BacTiterGlo, confirmation (AID 1900); format: functional, organism-based
[11] = inhibitors of SNCA 5'UTR-driven reporter translation, confirmation, H4 neuroglioma cells, luminescence (AID 1988); format: functional, cell-based
[12] = control 3'UTR Renilla luciferase suppression, dose response, counter-screen for Shn3 inhibitor project, cell-based, Clone20-Shn3RL, cherry-picked (AID 624133); format: functional
INS1 = experiment: beta cell apoptosis inhibitors, cytokine rescue, dose response, luminescence, retest (AID 449756); format: functional, cell-based; conditions: Rattus norvegicus;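 further: cell death triggered by IL-1 beta plus TNF-alpha plus IFN-gamma mixture; protective hits raise ATP signal compared with cytokine alone wells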
[13] = cytotoxicity toward NIH3T3 fibroblasts, dose response, counter-screen, cell-based, ATP luminescence, mouse fibroblasts (AID 2010); format: functional;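 further: cells exposed to compound for about 90 hours before reading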
[14] = ZM109 Env clade C HIV-1 fusion inhibitors, dose response, HeLa effector, CEM target cells, luciferase, cherry-pick (AID 652058); format: functional, cell-based
[15] = inhibitors of clade B AD8 Env fusion, dose response, cell-based, cherry-pick (AID 652062); format: functional;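 further: luciferase signal from cell-cell fusion driven by HIV-1 clade B AD8 Env; potency is for inhibitors of fusion seen as a drop in luminescence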

Chain of Cytochrome P450 2C9 (P11712 whole entry): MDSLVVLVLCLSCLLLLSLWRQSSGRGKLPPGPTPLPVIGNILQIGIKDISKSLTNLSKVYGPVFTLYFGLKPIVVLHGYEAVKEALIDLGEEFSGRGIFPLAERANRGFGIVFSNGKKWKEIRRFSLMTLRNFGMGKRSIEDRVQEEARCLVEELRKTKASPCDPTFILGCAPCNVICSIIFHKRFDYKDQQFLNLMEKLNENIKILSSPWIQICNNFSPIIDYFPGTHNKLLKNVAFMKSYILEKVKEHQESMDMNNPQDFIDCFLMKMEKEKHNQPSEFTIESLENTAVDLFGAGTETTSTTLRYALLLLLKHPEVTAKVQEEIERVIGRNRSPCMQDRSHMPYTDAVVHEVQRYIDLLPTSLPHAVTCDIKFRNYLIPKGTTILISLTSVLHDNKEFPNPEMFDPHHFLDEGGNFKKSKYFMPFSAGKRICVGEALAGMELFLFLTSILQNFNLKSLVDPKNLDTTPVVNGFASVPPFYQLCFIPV
Chain of FAD-linked sulfhydryl oxidase ALR (P55789 whole entry): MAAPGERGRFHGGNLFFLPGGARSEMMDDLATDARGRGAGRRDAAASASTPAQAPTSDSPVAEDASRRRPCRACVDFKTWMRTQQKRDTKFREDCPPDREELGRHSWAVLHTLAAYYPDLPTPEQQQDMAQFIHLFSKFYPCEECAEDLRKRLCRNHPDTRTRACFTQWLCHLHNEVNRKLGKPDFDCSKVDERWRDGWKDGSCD
Chain of Induced myeloid leukemia cell differentiation protein Mcl-1 (Q07820 whole entry): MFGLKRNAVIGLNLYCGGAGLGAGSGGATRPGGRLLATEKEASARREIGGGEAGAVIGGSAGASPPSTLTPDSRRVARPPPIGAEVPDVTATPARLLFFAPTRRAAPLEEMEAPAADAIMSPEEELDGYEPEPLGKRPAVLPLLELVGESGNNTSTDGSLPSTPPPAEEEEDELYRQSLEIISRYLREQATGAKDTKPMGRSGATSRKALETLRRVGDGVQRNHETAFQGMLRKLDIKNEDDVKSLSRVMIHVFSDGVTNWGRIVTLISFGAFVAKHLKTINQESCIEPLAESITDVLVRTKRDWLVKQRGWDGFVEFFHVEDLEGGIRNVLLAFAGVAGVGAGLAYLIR
Chain of Cytochrome P450 3A4 (P08684 whole entry): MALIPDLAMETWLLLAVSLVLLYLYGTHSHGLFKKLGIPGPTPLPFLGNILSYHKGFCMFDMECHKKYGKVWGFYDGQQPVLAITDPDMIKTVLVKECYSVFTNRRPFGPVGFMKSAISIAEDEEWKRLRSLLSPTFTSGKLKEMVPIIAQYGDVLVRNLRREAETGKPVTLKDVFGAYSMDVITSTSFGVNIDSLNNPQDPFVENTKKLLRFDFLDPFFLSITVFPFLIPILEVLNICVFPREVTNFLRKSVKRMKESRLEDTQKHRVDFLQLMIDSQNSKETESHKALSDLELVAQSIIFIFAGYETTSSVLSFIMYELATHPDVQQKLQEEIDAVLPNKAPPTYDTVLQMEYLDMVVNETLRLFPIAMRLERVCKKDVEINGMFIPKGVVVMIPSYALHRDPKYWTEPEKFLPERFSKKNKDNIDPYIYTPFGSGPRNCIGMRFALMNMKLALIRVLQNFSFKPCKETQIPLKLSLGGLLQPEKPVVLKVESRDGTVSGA
Chain of Cytochrome P450 2C19 (P33261 whole entry): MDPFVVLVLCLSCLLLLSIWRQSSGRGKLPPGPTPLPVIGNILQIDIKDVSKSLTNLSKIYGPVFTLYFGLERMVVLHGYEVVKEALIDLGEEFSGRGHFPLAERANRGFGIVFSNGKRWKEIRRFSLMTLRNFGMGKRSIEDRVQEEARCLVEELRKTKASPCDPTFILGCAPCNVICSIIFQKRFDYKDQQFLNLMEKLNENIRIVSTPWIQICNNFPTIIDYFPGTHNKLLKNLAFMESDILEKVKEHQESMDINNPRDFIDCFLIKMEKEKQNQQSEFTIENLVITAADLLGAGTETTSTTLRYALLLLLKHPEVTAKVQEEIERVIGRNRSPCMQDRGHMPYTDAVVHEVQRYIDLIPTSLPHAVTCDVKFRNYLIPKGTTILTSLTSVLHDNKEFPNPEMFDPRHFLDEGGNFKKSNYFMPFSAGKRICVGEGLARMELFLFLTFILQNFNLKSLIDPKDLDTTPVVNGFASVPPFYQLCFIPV

CCN(CC)S(=O)(=O)c1ccc2c3c(cccc13)C(=O)S2
AC50 (Cytochrome P450 3A4): 17.8 µM (inconclusive) | AC50 (Cytochrome P450 2C9): inconclusive

C[C@@H]1CN([C@H](C)CO)C(=O)Cc2cc(NC(=O)Nc3ccc(C(F)(F)F)cc3)ccc2O[C@H]1CN(C)Cc1ccc(C(F)(F)F)cc1
AC50 [1]: 6.59 µM (active)

C[C@H](CO)N1C[C@H](C)[C@H](CN(C)Cc2ccc(Cl)c(Cl)c2)Oc2c(NC(=O)CCCCCC(=O)Nc3ccccc3N)cccc2C1=O
AC50 [1]: 1.65 µM (active)

Cc1cc(C(=O)COc2ccccc2C(N)=O)c(C)n1C
IC50 (H9c2): > 79 µM (inactive)

C[C@H]1CN([C@@H](C)CO)C(=O)Cc2cc(N(C)C)ccc2O[C@H]1CN(C)Cc1ccc(C(=O)Nc2ccccc2N)cc1
AC50 [1]: 1.93 µM (active)

O=S(=O)(Nc1ccc(N2CCCCC2)cc1)c1cccc2cccnc12
AC50 [2]: 0.723 µM (active)

CN(C)c1ccc(C(=O)NC2(N3CCC3=O)CCCC2)cc1
IC50 [3]: 126 µM (active) | AC50 [2]: 2.55 µM (active)

C[C@H]1CN([C@@H](C)CO)C(=O)Cc2cc(NC(=O)C3CCCCC3)ccc2O[C@@H]1CN(C)Cc1ccc2c(c1)OCO2
AC50 [1]: 2.81 µM (active)

C[C@H](CO)N1C[C@H](C)[C@H](CN(C)C(=O)Nc2ccc(F)cc2)Oc2ncc(C#Cc3ccc(C(F)(F)F)cc3)cc2C1=O
AC50 [1]: 2.59 µM (active)

CCN(c1ccc(NC(=O)COC(=O)c2cccs2)cc1)C(C)C
IC50 [4]: 1.4 µM (not active)

CC(=O)N1CCN=C1SCc1cccc(F)c1
AC50 [2]: 6.74 µM (active)

Brc1[nH]nc2ccccc12
AC50 (Cytochrome P450 2C19): 11.2 µM (inconclusive) | AC50 (Cytochrome P450 2C9): inconclusive

O=C1Nc2cnc(Cl)nc2Nc2ccccc21
IC50 (H9c2): 18.7 µM (active)

COc1cc(C)c(C(=O)CC(=O)c2c(C)cc(OC)cc2C)c(C)c1
EC50 [5]: 73.2 µM (active) | EC50 (Streptococcus): > 150 µM (not active) | AC50 [6]: > 70 µM (inactive) | EC50 [7]: 10.7 µM (active) | EC50 [8]: 2.67 µM (active) | EC50 (Streptokinase A): 68.7 µM (active) | AC50 [9]: 7.4 µM (active) | EC50 [10]: 3.96 µM (active) | EC50 [11]: > 120 µM (not active) | AC50 [12]: 21.8 µM (active) | AC50 (INS1): 8.81 µM (active) | EC50 [13]: 6.5 µM (active)

COc1cnn(-c2ccccc2)c(=O)c1SCc1ccc(Cl)cc1Cl
IC50 [4]: 1.26 µM (not active)

COc1cc(C)c(Br)cc1S(=O)(=O)NCc1ccccc1
AC50 (Cytochrome P450 2C9): inconclusive

Cc1nnc2ccc(-c3cccc(NC(=O)c4ccc(Cl)nc4)c3)nn12
IC50 (H9c2): > 79 µM (inactive)

CC(=O)c1c(C)[nH]c(C(=O)OCC(=O)Nc2c(C)cccc2C)c1C
AC50 [14]: 0.745 µM (active) | AC50 [15]: 3.02 µM (active)
